# Tests used:
# Enterococcus faecium = experiment: In vitro antibacterial activity against Enterococcus faecium 02D31P2 VanTeiEry-R; assay type: functional
# [1] = target: DNA gyrase (Escherichia coli) (UniProt P0AES6+P0AES4); experiment: In vitro inhibition of supercoiling activity of Escherichia coli DNA gyrase as the ratio of IC50 of Novobiocin and IC50 of compound; assay type: protein-complex assay
# [2] = tested on: Staphylococcus epidermidis; experiment: In vitro antibacterial activity against Staphylococcus epidermidis 012GO39 OxaTei-R; assay type: functional
# Staphylococcus aureus [3] = experiment: In vitro antibacterial activity against Staphylococcus aureus 011GO76 OfloOxaEry-R; assay type: functional
# Staphylococcus aureus [4] = experiment: In vitro antibacterial activity against Staphylococcus aureus 011HT1 Nov-R; assay type: functional
# Staphylococcus aureus [5] = experiment: In vitro antibacterial activity against Staphylococcus aureus 011HT3; assay type: functional
# Streptococcus pyogenes = experiment: In vitro antibacterial activity against Streptococcus pyogenes O2A1UC1
structure (smiles),measurement,setting,value
CO[C@@H]1[C@@H](OC(=O)c2ccc(C)[nH]2)[C@@H](O)[C@H](Oc2ccc3c(OCCN(C)C)c(Cl)c(=O)oc3c2C)OC1(C)C,MIC,Enterococcus faecium,> 40 µg/mL
same,Ratio,[1],0.33
same,MIC,[2],5 µg/mL
same,MIC,Staphylococcus aureus [3],20 µg/mL
same,MIC,Staphylococcus aureus [4],> 40 µg/mL
same,MIC,Staphylococcus aureus [5],10 µg/mL
same,MIC,Streptococcus pyogenes,40 µg/mL
CO[C@@H]1[C@@H](OC(=O)c2ccc(C)[nH]2)[C@@H](O)[C@H](Oc2ccc3c(Cn4cncn4)cc(=O)oc3c2C)OC1(C)C,MIC,Enterococcus faecium,40 µg/mL
same,Ratio,[1],0.4
same,MIC,[2],0.6 µg/mL
same,MIC,Staphylococcus aureus [3],2.5 µg/mL
same,MIC,Staphylococcus aureus [4],40 µg/mL
same,MIC,Staphylococcus aureus [5],1.2 µg/mL
same,MIC,Streptococcus pyogenes,2.5 µg/mL
CO[C@@H]1[C@@H](OC(=O)c2ccc(C)[nH]2)[C@@H](O)[C@H](Oc2ccc3c(CN4CCNC(c5ccccc5)C4)cc(=O)oc3c2C)OC1(C)C (some centres undefined),MIC,Enterococcus faecium,10 µg/mL
same,Ratio,[1],0.28
same,MIC,[2],1.2 µg/mL
same,MIC,Staphylococcus aureus [3],5 µg/mL
same,MIC,Staphylococcus aureus [4],10 µg/mL
same,MIC,Staphylococcus aureus [5],1.2 µg/mL
same,MIC,Streptococcus pyogenes,2.5 µg/mL
CO[C@@H]1[C@@H](OC(=O)c2ccc(C)[nH]2)[C@@H](O)[C@H](Oc2ccc3c(CN)cc(=O)oc3c2C)OC1(C)C,MIC,Enterococcus faecium,> 40 µg/mL
same,Ratio,[1],1.8
same,MIC,[2],5 µg/mL
same,MIC,Staphylococcus aureus [3],40 µg/mL
same,MIC,Staphylococcus aureus [4],> 40 µg/mL
same,MIC,Staphylococcus aureus [5],10 µg/mL
same,MIC,Streptococcus pyogenes,40 µg/mL
CO[C@@H]1[C@@H](OC(=O)c2ccc(C)[nH]2)[C@@H](O)[C@H](Oc2ccc3c(CN4CCC[C@H]4CO)cc(=O)oc3c2C)OC1(C)C,MIC,Enterococcus faecium,20 µg/mL
same,Ratio,[1],0.3
same,MIC,[2],1.2 µg/mL
same,MIC,Staphylococcus aureus [3],1.2 µg/mL
same,MIC,Staphylococcus aureus [4],10 µg/mL
same,MIC,Staphylococcus aureus [5],0.6 µg/mL
same,MIC,Streptococcus pyogenes,2.5 µg/mL
CO[C@@H]1[C@@H](OC(=O)c2ccc(C)[nH]2)[C@@H](O)[C@H](Oc2ccc3c(CSc4nc[nH]n4)cc(=O)oc3c2C)OC1(C)C,MIC,Enterococcus faecium,2.5 µg/mL
same,Ratio,[1],0.4
same,MIC,[2],0.3 µg/mL
same,MIC,Staphylococcus aureus [3],0.6 µg/mL
same,MIC,Staphylococcus aureus [4],10 µg/mL
same,MIC,Staphylococcus aureus [5],0.3 µg/mL
same,MIC,Streptococcus pyogenes,0.6 µg/mL
CO[C@@H]1[C@@H](OC(=O)c2ccc(C)[nH]2)[C@@H](O)[C@H](Oc2ccc3c(OCCN4CCOC(CO)C4)cc(=O)oc3c2C)OC1(C)C (some centres undefined),MIC,Enterococcus faecium,> 40 µg/mL
same,Ratio,[1],0.25
same,MIC,[2],0.6 µg/mL
same,MIC,Staphylococcus aureus [3],> 40 µg/mL
same,MIC,Staphylococcus aureus [4],40 µg/mL
same,MIC,Staphylococcus aureus [5],1.2 µg/mL
same,MIC,Streptococcus pyogenes,10 µg/mL
CO[C@@H]1[C@@H](OC(=O)c2ccc(C)[nH]2)[C@@H](O)[C@H](Oc2ccc3c(OCCN4CCNC(c5ccccc5)C4)cc(=O)oc3c2C)OC1(C)C (some centres undefined),MIC,Enterococcus faecium,5 µg/mL
same,Ratio,[1],0.33
same,MIC,[2],0.6 µg/mL
same,MIC,Staphylococcus aureus [3],10 µg/mL
same,MIC,Staphylococcus aureus [4],5 µg/mL
same,MIC,Staphylococcus aureus [5],0.3 µg/mL
same,MIC,Streptococcus pyogenes,1.2 µg/mL
CCN1CCN(Cc2cc(=O)oc3c(C)c(O[C@@H]4OC(C)(C)[C@H](OC)[C@@H](OC(=O)c5ccc(C)[nH]5)[C@H]4O)ccc23)CC1,MIC,Enterococcus faecium,> 40 µg/mL
same,Ratio,[1],1
same,MIC,[2],2.5 µg/mL
same,MIC,Staphylococcus aureus [3],10 µg/mL
same,MIC,Staphylococcus aureus [4],> 40 µg/mL
same,MIC,Staphylococcus aureus [5],5 µg/mL
same,MIC,Streptococcus pyogenes,20 µg/mL
CO[C@@H]1[C@@H](OC(=O)c2ccc(C)[nH]2)[C@@H](O)[C@H](Oc2ccc3c(CN4CCNCC4)cc(=O)oc3c2C)OC1(C)C,MIC,Enterococcus faecium,> 40 µg/mL
same,Ratio,[1],2.3
same,MIC,[2],5 µg/mL
same,MIC,Staphylococcus aureus [3],20 µg/mL
same,MIC,Staphylococcus aureus [4],> 40 µg/mL
same,MIC,Staphylococcus aureus [5],10 µg/mL
same,MIC,Streptococcus pyogenes,20 µg/mL
CO[C@@H]1[C@@H](OC(=O)c2ccc(C)[nH]2)[C@@H](O)[C@H](Oc2ccc3c(OCCN)cc(=O)oc3c2C)OC1(C)C,MIC,Enterococcus faecium,20 µg/mL
same,Ratio,[1],0.81
same,MIC,[2],1.2 µg/mL
same,MIC,Staphylococcus aureus [3],5 µg/mL
same,MIC,Staphylococcus aureus [4],20 µg/mL
same,MIC,Staphylococcus aureus [5],2.5 µg/mL
same,MIC,Streptococcus pyogenes,5 µg/mL
CO[C@@H]1[C@@H](OC(=O)c2ccc(C)[nH]2)[C@@H](O)[C@H](Oc2ccc3c(CN4CCNCC4c4ccccc4)cc(=O)oc3c2C)OC1(C)C (some centres undefined),MIC,Enterococcus faecium,5 µg/mL
same,Ratio,[1],0.17
same,MIC,[2],0.6 µg/mL
same,MIC,Staphylococcus aureus [3],5 µg/mL
same,MIC,Staphylococcus aureus [4],5 µg/mL
same,MIC,Staphylococcus aureus [5],1.2 µg/mL
same,MIC,Streptococcus pyogenes,1.2 µg/mL
CO[C@@H]1[C@@H](OC(=O)c2ccc(C)[nH]2)[C@@H](O)[C@H](Oc2ccc3c(OCCN4CCN(C)CC4)c(Cl)c(=O)oc3c2C)OC1(C)C,MIC,Enterococcus faecium,> 40 µg/mL
same,Ratio,[1],0.33
same,MIC,[2],5 µg/mL
same,MIC,Staphylococcus aureus [3],10 µg/mL
same,MIC,Staphylococcus aureus [4],> 40 µg/mL
same,MIC,Staphylococcus aureus [5],5 µg/mL
same,MIC,Streptococcus pyogenes,10 µg/mL
CO[C@@H]1[C@@H](OC(=O)c2ccc(C)[nH]2)[C@@H](O)[C@H](Oc2ccc3c(OCCN4CCOCC4)c(Cl)c(=O)oc3c2C)OC1(C)C,MIC,Enterococcus faecium,> 40 µg/mL
same,Ratio,[1],0.17
same,MIC,[2],2.5 µg/mL
same,MIC,Staphylococcus aureus [3],2.5 µg/mL
same,MIC,Staphylococcus aureus [4],> 40 µg/mL
same,MIC,Staphylococcus aureus [5],1.2 µg/mL
same,MIC,Streptococcus pyogenes,5 µg/mL
CO[C@@H]1[C@@H](OC(=O)c2ccc(C)[nH]2)[C@@H](O)[C@H](Oc2ccc3c(CN4CCC(O)CC4)cc(=O)oc3c2C)OC1(C)C,MIC,Enterococcus faecium,20 µg/mL
same,Ratio,[1],0.22
same,MIC,[2],0.6 µg/mL
same,MIC,Staphylococcus aureus [3],1.2 µg/mL
same,MIC,Staphylococcus aureus [4],20 µg/mL
same,MIC,Staphylococcus aureus [5],0.6 µg/mL
same,MIC,Streptococcus pyogenes,2.5 µg/mL
CO[C@@H]1[C@@H](OC(=O)c2ccc(C)[nH]2)[C@@H](O)[C@H](Oc2ccc3c(Cn4ccnc4)cc(=O)oc3c2C)OC1(C)C,MIC,Enterococcus faecium,> 40 µg/mL
same,Ratio,[1],1
same,MIC,[2],1.2 µg/mL
same,MIC,Staphylococcus aureus [3],5 µg/mL
same,MIC,Staphylococcus aureus [4],> 40 µg/mL
same,MIC,Staphylococcus aureus [5],1.2 µg/mL
same,MIC,Streptococcus pyogenes,5 µg/mL
CNCCOc1cc(=O)oc2c(C)c(O[C@@H]3OC(C)(C)[C@H](OC)[C@@H](OC(=O)c4ccc(C)[nH]4)[C@H]3O)ccc12,MIC,Enterococcus faecium,> 40 µg/mL
same,Ratio,[1],2.3
same,MIC,[2],1.2 µg/mL
same,MIC,Staphylococcus aureus [3],2.5 µg/mL
same,MIC,Staphylococcus aureus [4],20 µg/mL
same,MIC,Staphylococcus aureus [5],2.5 µg/mL
same,MIC,Streptococcus pyogenes,5 µg/mL
CO[C@@H]1[C@@H](OC(=O)c2ccc(C)[nH]2)[C@@H](O)[C@H](Oc2ccc3c(CN4CCCC4)cc(=O)oc3c2C)OC1(C)C,MIC,Enterococcus faecium,> 40 µg/mL
same,Ratio,[1],0.5
same,MIC,[2],2.5 µg/mL
same,MIC,Staphylococcus aureus [3],5 µg/mL
same,MIC,Staphylococcus aureus [4],40 µg/mL
same,MIC,Staphylococcus aureus [5],2.5 µg/mL
same,MIC,Streptococcus pyogenes,10 µg/mL
CO[C@@H]1[C@@H](OC(=O)c2ccc(C)[nH]2)[C@@H](O)[C@H](Oc2ccc3c(CN4CCNC(c5ccco5)C4)cc(=O)oc3c2C)OC1(C)C (some centres undefined),MIC,Enterococcus faecium,10 µg/mL
same,Ratio,[1],0.33
same,MIC,[2],0.6 µg/mL
same,MIC,Staphylococcus aureus [3],10 µg/mL
same,MIC,Staphylococcus aureus [4],10 µg/mL
same,MIC,Staphylococcus aureus [5],0.6 µg/mL
same,MIC,Streptococcus pyogenes,1.2 µg/mL
CO[C@@H]1[C@@H](OC(=O)c2ccc(C)[nH]2)[C@@H](O)[C@H](Oc2ccc3c(OCCn4ccnc4)cc(=O)oc3c2C)OC1(C)C,MIC,Enterococcus faecium,10 µg/mL
same,Ratio,[1],0.22
same,MIC,[2],0.3 µg/mL
same,MIC,Staphylococcus aureus [3],1.2 µg/mL
same,MIC,Staphylococcus aureus [4],> 20 µg/mL
same,MIC,Staphylococcus aureus [5],0.6 µg/mL
same,MIC,Streptococcus pyogenes,1.2 µg/mL
CO[C@@H]1[C@@H](OC(N)=O)[C@@H](O)[C@H](Oc2ccc3c(O)c(NC(=O)c4ccc(O)c(CC=C(C)C)c4)c(=O)oc3c2C)OC1(C)C [NOVOBIOCIN],MIC,Enterococcus faecium,0.3 µg/mL
same,MIC,[2],0.08 µg/mL
same,MIC,Staphylococcus aureus [3],< 0.04 µg/mL
same,MIC,Staphylococcus aureus [4],20 µg/mL
same,MIC,Staphylococcus aureus [5],< 0.04 µg/mL
same,MIC,Streptococcus pyogenes,0.15 µg/mL
CO[C@@H]1[C@@H](OC(=O)c2ccc(C)[nH]2)[C@@H](O)[C@H](Oc2ccc3c(O)c(NC(=O)c4ccc(O)c(CC=C(C)C)c4)c(=O)oc3c2Cl)OC1(C)C [CHLOROBIOCIN],MIC,[2],< 0.04 µg/mL
same,MIC,Staphylococcus aureus [3],< 0.04 µg/mL
same,MIC,Staphylococcus aureus [4],0.15 µg/mL
same,MIC,Staphylococcus aureus [5],< 0.04 µg/mL
same,MIC,Streptococcus pyogenes,< 0.04 µg/mL
CO[C@@H]1[C@@H](OC(=O)c2ccc(C)[nH]2)[C@@H](O)[C@H](Oc2ccc3c(OCCn4cnc(-c5cccnc5)c4)cc(=O)oc3c2C)OC1(C)C,MIC,Enterococcus faecium,> 40 µg/mL
same,Ratio,[1],0.63
same,MIC,[2],0.08 µg/mL
same,MIC,Staphylococcus aureus [3],> 40 µg/mL
same,MIC,Staphylococcus aureus [4],> 40 µg/mL
same,MIC,Staphylococcus aureus [5],0.6 µg/mL
same,MIC,Streptococcus pyogenes,1.2 µg/mL
CO[C@@H]1[C@@H](OC(=O)c2ccc(C)[nH]2)[C@@H](O)[C@H](Oc2ccc3c(OCCN4CCC[C@H]4CO)cc(=O)oc3c2C)OC1(C)C,MIC,Enterococcus faecium,20 µg/mL
same,Ratio,[1],0.66
same,MIC,[2],2.5 µg/mL
same,MIC,Staphylococcus aureus [4],40 µg/mL
same,MIC,Staphylococcus aureus [5],0.6 µg/mL
same,MIC,Streptococcus pyogenes,5 µg/mL
